These results are taken from patent US8450313B2, “2,3-diaryl- or heteroaryl-substituted 1,1,1-trifluoro-2-hydroxypropyl compounds” (Hoffmann-La Roche Inc., priority 2009, dated 2013).

This assay addresses T1, full length human recombinant glucocorticoid receptor (Homo sapiens, UniProt P04150).
T1 construct: It contains some partially purified full length human recombinant glucocorticoid receptor; purchased Panvera/Invitrogen PV4302
T1 sequence (P04150 1-777): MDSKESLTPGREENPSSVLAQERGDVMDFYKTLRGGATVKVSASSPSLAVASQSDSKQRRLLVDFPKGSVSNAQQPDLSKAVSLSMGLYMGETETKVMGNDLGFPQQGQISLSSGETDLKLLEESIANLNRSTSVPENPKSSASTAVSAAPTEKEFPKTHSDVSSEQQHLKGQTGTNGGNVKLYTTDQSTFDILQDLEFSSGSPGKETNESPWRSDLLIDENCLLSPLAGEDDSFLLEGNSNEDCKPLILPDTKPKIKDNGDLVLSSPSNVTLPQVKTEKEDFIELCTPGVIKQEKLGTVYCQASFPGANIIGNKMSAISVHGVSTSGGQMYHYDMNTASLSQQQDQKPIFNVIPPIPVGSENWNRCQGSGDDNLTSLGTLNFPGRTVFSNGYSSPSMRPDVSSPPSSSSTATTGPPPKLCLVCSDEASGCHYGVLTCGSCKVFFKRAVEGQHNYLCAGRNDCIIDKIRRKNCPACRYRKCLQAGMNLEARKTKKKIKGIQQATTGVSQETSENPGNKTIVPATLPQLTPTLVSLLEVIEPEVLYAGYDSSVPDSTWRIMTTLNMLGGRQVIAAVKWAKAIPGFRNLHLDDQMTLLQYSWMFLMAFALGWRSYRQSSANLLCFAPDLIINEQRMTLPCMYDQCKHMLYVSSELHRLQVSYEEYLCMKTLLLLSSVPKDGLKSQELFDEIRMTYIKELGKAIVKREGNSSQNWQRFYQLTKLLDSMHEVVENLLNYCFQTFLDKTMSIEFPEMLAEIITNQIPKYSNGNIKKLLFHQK
Nature of the assay: Glucocorticoid Receptor Binding Assay (Glucocorticoid Receptor Competitor Assay far red kit, fluorescence polarization). The settings on record: competition with fluorescent GR ligand Fluormone GS Far Red, 3 hours at 22° C., pH 7.4; Ki calculated from IC50 by Cheng-Prusoff. Put shortly:
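Compounds in serial dilution (from intermediate 4.2% DMSO stock) displace Fluormone GS Far Red from full-length human recombinant GR with stabilizing peptide, pH 7.4, incubated 3 hours at 22° C dark. Polarized fluorescence (610–660 nm) gives IC50 via sigmoidal fit, converted to Ki by Cheng-Prusoff.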

Consider `C[C@H](c1ccc(Oc2ccc(C(=O)O)c(Cl)n2)cc1Cl)[C@@](O)(c1ccc2oc(=O)n(C)c2c1)C(F)(F)F` (relative stereo) [Example 184, 2-Chloro-6-{3-chloro-4-[3,3,3-trifluoro-2-hydroxy-1-methyl-2-(3-methyl-2-oxo-2,3-dihydro-benzooxazol-5-yl)-propyl]-phenoxy}-nicotinic acid], for which the Ki (commonly a measure of affinity in units of concentration, obtained from inhibition or displacement) was 0.8 nM. The result for `C[C@H](c1ccc(Oc2cc(Cl)c(C(=O)O)cn2)cc1Cl)[C@@](O)(c1ccc2oc(=O)n(C)c2c1)C(F)(F)F` (relative stereo) [Example 185, 4-Chloro-6-{3-chloro-4-[3,3,3-trifluoro-2-hydroxy-1-methyl-2-(3-methyl-2-oxo-2,3-dihydro-benzooxazol-5-yl)-propyl]-phenoxy}-nicotinic acid] reads 0.7 nM; that for `COC(=O)c1cncc(-c2ccc([C@@H](C)[C@@](O)(c3ccc4oc(=O)n(C)c4c3)C(F)(F)F)c(Cl)c2)c1` (relative stereo) [Example 186, 5-{3-Chloro-4-[3,3,3-trifluoro-2-hydroxy-1-methyl-2-(3-methyl-2-oxo-2,3-dihydro-benzooxazol-5-yl)-propyl]-phenyl}-nicotinic acid methyl ester], 1.4 nM; that for `COC(=O)c1ccc(-c2ccc([C@@H](C)[C@@](O)(c3ccc4oc(=O)n(C)c4c3)C(F)(F)F)c(Cl)c2)cn1` (relative stereo) [Example 187, 5-{3-Chloro-4-[3,3,3-trifluoro-2-hydroxy-1-methyl-2-(3-methyl-2-oxo-2,3-dihydro-benzooxazol-5-yl)-propyl]-phenyl}-pyridine-2-carboxylic acid methyl ester], 2.1 nM. Then `CCOC(=O)c1cccc(-c2ccc([C@@H](C)[C@@](O)(c3ccc4oc(=O)n(C)c4c3)C(F)(F)F)c(Cl)c2)n1` (relative stereo) [Example 188, 6-{3-Chloro-4-[3,3,3-trifluoro-2-hydroxy-1-methyl-2-(3-methyl-2-oxo-2,3-dihydro-benzooxazol-5-yl)-propyl]-phenyl}-pyridine-2-carboxylic acid ethyl ester], with 2.2 nM; and `C[C@H](c1ccc(-c2ccc(C(=O)O)nc2)cc1Cl)[C@@](O)(c1ccc2oc(=O)n(C)c2c1)C(F)(F)F` (relative stereo) [Example 189, 5-{3-Chloro-4-[3,3,3-trifluoro-2-hydroxy-1-methyl-2-(3-methyl-2-oxo-2,3-dihydro-benzooxazol-5-yl)-propyl]-phenyl}-pyridine-2-carboxylic acid], with 6.6 nM; and `C[C@H](c1ccc(-c2cccc(C(=O)O)n2)cc1Cl)[C@@](O)(c1ccc2oc(=O)n(C)c2c1)C(F)(F)F` (relative stereo) [Example 190, 6-{3-Chloro-4-[3,3,3-trifluoro-2-hydroxy-1-methyl-2-(3-methyl-2-oxo-2,3-dihydro-benzooxazol-5-yl)-propyl]-phenyl}-pyridine-2-carboxylic acid], with 3 nM. Then `C[C@H](c1ccc(-c2cncc(C(=O)O)c2)cc1Cl)[C@@](O)(c1ccc2oc(=O)n(C)c2c1)C(F)(F)F` (relative stereo) [Example 191, 5-{3-Chloro-4-[3,3,3-trifluoro-2-hydroxy-1-methyl-2-(3-methyl-2-oxo-2,3-dihydro-benzooxazol-5-yl)-propyl]-phenyl}-nicotinic acid], with 1.4 nM; and `C[C@H](c1ccc(Br)cc1C(F)(F)F)[C@@](O)(c1ccc2oc(=O)n(C)c2c1)C(F)(F)F` (relative stereo) [Example 193, 5-[2-(4-Bromo-2-trifluoromethyl-phenyl)-1-hydroxy-1-trifluoromethyl-propyl]-3-methyl-3H-benzooxazol-2-one], with 0.9 nM; and `C[C@H](c1ccc(-c2cncnc2)cc1Cl)[C@@](O)(c1ccc2oc(=O)n(C)c2c1)C(F)(F)F` (relative stereo) [Example 194, 5-[2-(2-Chloro-4-pyrimidin-5-yl-phenyl)-1-hydroxy-1-trifluoromethyl-propyl]-3-methyl-3H-benzooxazol-2-one], with 0.7 nM. Turning to `COC(=O)c1ccc(-c2ccc([C@@H](C)[C@@](O)(c3ccc4oc(=O)n(C)c4c3)C(F)(F)F)c(C(F)(F)F)c2)cc1F` (relative stereo) [Example 198, 3-Fluoro-4′-[3,3,3-trifluoro-2-hydroxy-1-methyl-2-(3-methyl-2-oxo-2,3-dihydro-benzooxazol-5-yl)-propyl]-3′-trifluoromethyl-biphenyl-4-carboxylic acid methyl ester], the Ki was 1.7 nM. The result for `COC(=O)c1ccc(Oc2ccc([C@@H](C)[C@@](O)(c3ccc4oc(=O)n(C)c4c3)C(F)(F)F)c(Cl)c2)nn1` (relative stereo) [Example 199, 6-{3-Chloro-4-[3,3,3-trifluoro-2-hydroxy-1-methyl-2-(3-methyl-2-oxo-2,3-dihydro-benzooxazol-5-yl)-propyl]-phenoxy}-pyridazine-3-carboxylic acid methyl ester] reads 2.1 nM; that for `C[C@H](c1ccc(Oc2ccc(C(=O)O)nn2)cc1Cl)[C@@](O)(c1ccc2oc(=O)n(C)c2c1)C(F)(F)F` (relative stereo) [Example 201, 6-{3-Chloro-4-[3,3,3-trifluoro-2-hydroxy-1-methyl-2-(3-methyl-2-oxo-2,3-dihydro-benzooxazol-5-yl)-propyl]-phenoxy}-pyridazine-3-carboxylic acid], 3.9 nM; that for `COC(=O)c1cnc(Oc2ccc([C@@H](C)[C@@](O)(c3ccc4oc(=O)n(C)c4c3)C(F)(F)F)c(Cl)c2)nc1` (relative stereo) [Example 202, 2-{3-Chloro-4-[3,3,3-trifluoro-2-hydroxy-1-methyl-2-(3-methyl-2-oxo-2,3-dihydro-benzooxazol-5-yl)-propyl]-phenoxy}-pyrimidine-5-carboxylic acid methyl ester], 1.8 nM. Then `C[C@H](c1ccc(Oc2ncc(C(=O)O)cn2)cc1Cl)[C@@](O)(c1ccc2oc(=O)n(C)c2c1)C(F)(F)F` (relative stereo) [Example 203, 2-{3-Chloro-4-[3,3,3-trifluoro-2-hydroxy-1-methyl-2-(3-methyl-2-oxo-2,3-dihydro-benzooxazol-5-yl)-propyl]-phenoxy}-pyrimidine-5-carboxylic acid], with 1.8 nM; and `COC(=O)c1ccc(Oc2ccc([C@@H](C)[C@@](O)(c3ccc4c(c3)N(C)C(=O)CO4)C(F)(F)F)c(Cl)c2)cc1Cl` (single isomer, unassigned) [Example 216], with 60.2 nM; and `COC(=O)c1ccc(Oc2ccc([C@H](C)[C@](O)(c3ccc4c(c3)N(C)C(=O)CO4)C(F)(F)F)c(Cl)c2)cc1Cl` (single isomer, unassigned) [Example 217], with 1 nM. Then `COC(=O)c1cnc(Oc2ccc([C@H](C)[C@](O)(c3ccc4c(c3)N(C)C(=O)CO4)C(F)(F)F)c(Cl)c2)c(Cl)c1` (single isomer, unassigned) [Example 222], with 1.6 nM; and `CCOC(=O)c1ccc(COc2ccc(Cl)c([C@H](C)[C@](O)(c3ccc4c(c3)N(C)C(=O)CO4)C(F)(F)F)c2)cc1` (stereo in doubt) [Example 1, 4-{4-Chloro-3-[3,3,3-trifluoro-2-hydroxy-1-methyl-2-(4-methyl-3-oxo-3,4-dihydro-2H-benzo[1,4]oxazin-6-yl)-propyl]-phenoxymethyl}-benzoic acid ethyl ester], with 9.7 nM. For `CCOC(=O)COc1ccc(Cl)c([C@H](C)[C@](O)(c2ccc3c(c2)N(C)C(=O)CO3)C(F)(F)F)c1` (stereo in doubt) [Example 3, {4-Chloro-3-[3,3,3-trifluoro-2-hydroxy-1-methyl-2-(4-methyl-3-oxo-3,4-dihydro-2H-benzo[1,4]oxazin-6-yl)-propyl]-phenoxy}-acetic acid ethyl ester], the Ki is 9.2 nM. Then `C[C@@H](c1cc(Oc2cccc(C(=O)O)c2)ccc1Cl)[C@](O)(c1ccc2c(c1)N(C)C(=O)CO2)C(F)(F)F` (stereo in doubt) [Example 6, 3-{4-Chloro-3-[3,3,3-trifluoro-2-hydroxy-1-methyl-2-(4-methyl-3-oxo-3,4-dihydro-2H-benzo[1,4]oxazin-6-yl)-propyl]-phenoxy}-benzoic acid], with 4.8 nM; and `C[C@@H](c1ccc(-c2ccc(C(=O)O)cc2)cc1Cl)[C@](O)(c1ccc2c(c1)N(C)C(=O)CO2)C(F)(F)F` (stereo in doubt) [Example 22, 3′-Chloro-4′-[3,3,3-trifluoro-2-hydroxy-1-methyl-2-(4-methyl-3-oxo-3,4-dihydro-2H-benzo[1,4]oxazin-6-yl)-propyl]-biphenyl-4-carboxylic acid], with 2.9 nM.
